From PubChem BioAssay (NCI)
Values joined by “and” are separate entries in the source; they are usually repeats but may differ in a detail not shown here. Equal values may be shown once.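 How tested: cells in 96-well plates exposed to compound for 48 hours at five concentrations. GI50 = concentration required for 50% inhibition of growth. TGI: concentration producing complete growth inhibition.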

What was measured:
Assay in all cases: growth of human tumour cells (NCI), 48 h
[1] = test system: ACHN renal
[2] = test system: SK-MEL-5 melanoma
[3] = test system: UACC-257 melanoma
[4] = test system: M14 melanoma
[5] = test system: MOLT-4 leukemia
[6] = test system: RPMI-8226 leukemia
[7] = test system: HCC-2998 colon
[8] = test system: SF-295 CNS
[9] = test system: HCT-15 colon
[10] = test system: SR leukemia

SMILES | TGI [1] | TGI [2] | TGI [3] | TGI [4] | TGI [5] | TGI [6] | TGI [7] | TGI [8] | TGI [9] | TGI [10] | GI50 [1] | GI50 [2] | GI50 [3] | GI50 [4] | GI50 [5] | GI50 [7] | GI50 [8] | GI50 [9] | GI50 [10] | GI50 [6]
Clc1ccc(C(n2cc(Br)cn2)n2cc(Br)cn2)cc1 | 27.6 µM | 27.2 µM | 29.3 µM | 35.2 µM | 47.9 µM | 60.2 µM | 31.8 µM | 29.8 µM | 33.2 µM |  |  |  |  |  |  |  |  |  |  | 
CC(=O)C1=C(O)CC2CC3c4[nH]c5ccccc5c4CCN3CC2C1 (stereo not drawn) | > 100 µM | > 100 µM | > 100 µM | > 100 µM | 70.6 µM |  | > 100 µM | > 100 µM | > 100 µM | 58.5 µM |  |  |  |  |  |  |  |  |  | 
CN(C)c1ccc(/C=c2\sc3nc4ccccc4n3c2=O)cc1 | > 100 µM | > 100 µM | > 100 µM | > 100 µM |  |  | > 100 µM | > 100 µM | > 100 µM |  |  |  |  |  |  |  |  |  |  | 
O=c1c2cc(Cl)ccc2sc2cccc(Cl)c12 | > 100 µM |  | > 100 µM | > 100 µM | > 100 µM | > 100 µM |  | > 100 µM | > 100 µM | > 100 µM |  |  |  |  |  |  |  |  |  | 
CC(=O)OCc1cc2ccccc2nc1C(Br)(Br)Br | 27.3 µM | 23.9 µM | 27 µM | 55 µM | 28.1 µM |  | 29.3 µM | 32.9 µM | 54.7 µM | 13.7 µM |  |  |  |  |  |  |  |  |  | 
O=c1c(O)c(-c2cc(O)c(O)c(O)c2)oc2cc(O)cc(O)c12 | > 100 µM | > 100 µM | > 100 µM | > 100 µM | > 100 µM | > 100 µM |  | 36.3 µM | 71.8 µM | > 100 µM |  |  |  |  |  |  |  |  |  | 
O=Cc1c(O)c(C(=O)Nc2ccc3[nH]c(=O)[nH]c3c2)cc2ccccc12 | > 100 µM | > 100 µM | > 100 µM | > 100 µM | > 100 µM | > 100 µM | > 100 µM | > 100 µM | > 100 µM |  |  |  |  |  |  |  |  |  |  | 
NC(N)=NS(=O)(=O)c1ccc(Nc2c3ccccc3nc3c(C(=O)Nc4ccc(S(N)(=O)=O)cc4)cccc23)cc1 | > 100 µM | > 100 µM | > 100 µM | > 100 µM | > 100 µM | > 100 µM | > 100 µM | > 100 µM | > 100 µM |  |  |  |  |  |  |  |  |  |  | 
CCN(CC)c1ccc(N=Nc2ccc(-c3nc4ccc[n+](C)c4o3)cc2)cc1 |  | 11 µM | 20.2 µM | 24.8 µM | 16.2 µM | 7.38 µM |  | 27.9 µM | 22.3 µM | 20.9 µM |  |  |  |  |  |  |  |  |  | 
CCOc1ccc2nc(NC(=O)C(=O)C(c3cnc4ccccc4n3)[N+](=O)[O-])sc2c1 (stereo not drawn) | > 100 µM | > 100 µM | > 100 µM | > 100 µM | > 100 µM | > 100 µM | > 100 µM | > 100 µM | > 100 µM |  |  |  |  |  |  |  |  |  |  | 
NC(N)=NS(=O)(=O)c1ccc(NCCc2c3ccccc3nc3ccccc23)cc1 | > 100 µM |  | > 100 µM | > 100 µM | > 100 µM | > 100 µM | > 100 µM | > 100 µM | > 100 µM | > 100 µM |  |  |  |  |  |  |  |  |  | 
COc1cc(C2CC(c3ccc(Nc4ccnc5cc(Cl)ccc45)cc3)=NN2c2ccc(Cl)cc2)cc(OC)c1OC (stereo not drawn) | > 100 µM | 15.6 µM | 36.4 µM | 9.61 µM | > 100 µM |  | 8.03 µM | 8.32 µM | > 100 µM | 56.3 µM | 1850 nM | 2680 nM | 2720 nM | 2010 nM | 3860 nM | 2090 nM | 2020 nM | 877 nM | 1200 nM | 
COc1ccc2c(c1)C(=O)c1c-2n(CCCI)c(=O)c2cc([N+](=O)[O-])ccc12 | 1.03 µM and 0.239 µM | 0.438 µM and 0.468 µM | 17.4 µM and 37.9 µM | 0.59 µM and 1.35 µM | 0.971 µM and 0.117 µM |  | 6.41 µM and 21.9 µM | 50 µM and 66.8 µM | 50 µM and 28 µM | 0.0888 µM and 0.143 µM | 138 nM and 29.3 nM | 109 nM and 124 nM | 914 nM and 4130 nM | 133 nM and 57 nM | 60 nM and 21.4 nM | 630 nM and 797 nM | 122 nM and 100 nM | 1050 nM and 1130 nM | 5 nM | 
C[N+]1=C(/C=C\C=C\c2ccccc2)C(C)(C)c2ccccc21 | 18.7 µM |  | 4.52 µM | 7.71 µM | 6.44 µM | 6.53 µM | 14.9 µM | 24.6 µM | 11.8 µM | 4.31 µM | 5840 nM |  | 1690 nM | 2140 nM | 2130 nM | 3280 nM | 10800 nM | 2270 nM | 925 nM | 1220 nM
COC(=O)[C@@H](C)C[C@H](Cc1ccccc1)NC(=O)c1csc([C@@H](C[C@H](C(C)C)N(C)C(=O)[C@@H](NC(=O)[C@H]2CCCCN2C)C2CC2)OC(C)=O)n1 | > 16.5 µM | 0.0138 µM and 0.00203 µM |  | < 0.00165 µM | > 16.5 µM | > 16.5 µM | > 16.5 µM | 0.00369 µM | > 16.5 µM | > 16.5 µM | 1.04 nM and 1.65 nM |  |  | 0.455 nM and < 1.65 nM | 4.64 nM and 1.65 nM | 0.338 nM and 1.65 nM | 0.345 nM | 1.31 nM and 1.65 nM |  | 0.225 nM and 1.65 nM
Cc1cc2c(C)nn(Cc3ccc(Cl)cc3)c2c(C#N)c1C | > 100 µM |  | > 100 µM |  |  | > 100 µM | > 100 µM | > 100 µM | > 100 µM | > 100 µM |  |  |  |  |  |  |  |  |  | 
Cc1ccc(Cl)cc1NC(=O)c1sc2nc3c(cc2c1N)C(=O)CCC3 | > 100 µM | > 100 µM | > 100 µM | > 100 µM | > 100 µM | > 100 µM | > 100 µM | 7.44 µM | > 100 µM |  | 50400 nM | 3480 nM | 7300 nM | 6310 nM | > 100000 nM | > 100000 nM | 2330 nM | 4790 nM |  | > 100000 nM
O=c1cccccc1[O-].O=c1cccccc1[O-].O=c1cccccc1[O-].[La+3] | > 100 µM | 22.4 µM | 47.9 µM | 53.8 µM | > 100 µM | > 100 µM | > 100 µM | 39.6 µM | > 100 µM |  |  |  |  |  |  |  |  |  |  | 
O=C(c1ccccc1)c1cn(/N=C\c2ccccc2)c(=O)nc1-c1ccccc1 | > 100 µM | > 100 µM | > 100 µM | > 100 µM | > 100 µM |  | > 100 µM | > 100 µM | > 100 µM |  |  |  |  |  |  |  |  |  |  | 
N#Cc1cccc(/C=N/N=C(\N)NO)c1 | > 100 µM |  | > 100 µM | > 100 µM |  |  |  | > 100 µM | > 100 µM | > 100 µM |  |  |  |  |  |  |  |  |  | 
